Reference: patent publication US6921840B1 (The Trustees of the University of Pennsylvania, priority 1999, dated 2005)
Read-outs that look alike come from different tables or passages of the source. Values belong to the compound of their own block, whether it stands above or below them.

Key:
[1] = target: T1, SERT (Rattus norvegicus, UniProt P31652); experiment: Competition binding with [125I]IDAM in rat frontal cortical homogenate; design: The frontal cortex of rat brain were dissected and homogenized in 30 volumes of buffer; from tissue; host or cells: rat frontal cortex membrane homogenates (male Sprague-Dawley rats, control and PCA-lesioned); details: 0.2 nM [125I]IDAM, rat frontal cortical homogenate; read-out: Ki for inhibition of [125I]IDAM binding
T1 sequence (P31652 whole entry): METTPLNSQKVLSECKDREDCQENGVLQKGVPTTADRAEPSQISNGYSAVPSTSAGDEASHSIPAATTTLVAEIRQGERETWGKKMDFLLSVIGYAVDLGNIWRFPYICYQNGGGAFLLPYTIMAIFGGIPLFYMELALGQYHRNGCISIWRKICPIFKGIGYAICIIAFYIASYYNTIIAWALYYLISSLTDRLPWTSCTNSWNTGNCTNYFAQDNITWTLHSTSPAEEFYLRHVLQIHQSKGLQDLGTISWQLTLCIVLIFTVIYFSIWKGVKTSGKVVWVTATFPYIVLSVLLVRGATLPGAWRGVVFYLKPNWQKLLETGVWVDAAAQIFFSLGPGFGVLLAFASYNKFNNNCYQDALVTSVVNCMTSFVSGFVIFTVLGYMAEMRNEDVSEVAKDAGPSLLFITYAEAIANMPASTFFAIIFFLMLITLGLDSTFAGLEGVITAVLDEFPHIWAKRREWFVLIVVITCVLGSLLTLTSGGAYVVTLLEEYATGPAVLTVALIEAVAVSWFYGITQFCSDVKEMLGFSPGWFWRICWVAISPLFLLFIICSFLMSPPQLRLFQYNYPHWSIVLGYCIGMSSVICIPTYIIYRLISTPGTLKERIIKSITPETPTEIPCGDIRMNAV
Experimental: The homogenates were centrifuged at 20,000 g for 20 min. The resulting pellets were then re-suspended and recentrifuged. The final pellets were suspended in the same buffer and used for in vitro binding assays.
Various inhibitors were serially diluted with the buffer containing 0.1% BSA to overcome the stickiness and loss due to dilution. […] Incubation was carried out for 60 min at room temperature and then terminated by separation of bound from free radioligand by filtration through glass fiber filters (Schleicher & Schuell No. 25, Keene, N.H.) presoaked with 1% polyethylenimine. The filters were then washed three times with 3 ml of ice-cold […] Tris buffer and counted in a gamma counter (Packard 5000) with 70% efficiency. To study the effect of […], the homogenates were prepared in a sodium-free 50 mM Tris-HCl/5 mM KCl buffer.

[2] = target: T1, SERT; experiment: In vivo competitive binding: drug pretreatment before [125I]IDAM; details: 2 mg/kg i.v. 5 min prior to tracer; 60 min after tracer
Experimental: Experiments were performed using groups of 3-4 animals per study. […] The reduction of regional specific binding in the drug-pretreated rats was compared to the control animals with saline pretreatment.

[3] = target: T2, serotonin transporter (SERT) expressed in LLC-PK1 cells (Rattus norvegicus, UniProt P31652); experiment: [125I]IPT competition binding, LLC-SERT membrane homogenates
T2 construct: host or cells: LLC-PK1 (LLC-SERT)
T2 sequence (P31652 whole entry): as above
Excerpt: (§1) Three monoamine transporters expressed respectively in a common parental cell line, LLC-PK, (referred to as LLC-DAT. LLC-NET and LLC-SERT) were kindly provided by Dr. G. Rudnick of Yale University.

[4] = target: T3, norepinephrine transporter (NET) expressed in LLC-PK1 cells (Homo sapiens, UniProt P23975); experiment: [125I]IPT competition binding, LLC-NET membrane homogenates
T3 construct: host or cells: LLC-PK1 (LLC-NET)
T3 sequence (P23975 whole entry): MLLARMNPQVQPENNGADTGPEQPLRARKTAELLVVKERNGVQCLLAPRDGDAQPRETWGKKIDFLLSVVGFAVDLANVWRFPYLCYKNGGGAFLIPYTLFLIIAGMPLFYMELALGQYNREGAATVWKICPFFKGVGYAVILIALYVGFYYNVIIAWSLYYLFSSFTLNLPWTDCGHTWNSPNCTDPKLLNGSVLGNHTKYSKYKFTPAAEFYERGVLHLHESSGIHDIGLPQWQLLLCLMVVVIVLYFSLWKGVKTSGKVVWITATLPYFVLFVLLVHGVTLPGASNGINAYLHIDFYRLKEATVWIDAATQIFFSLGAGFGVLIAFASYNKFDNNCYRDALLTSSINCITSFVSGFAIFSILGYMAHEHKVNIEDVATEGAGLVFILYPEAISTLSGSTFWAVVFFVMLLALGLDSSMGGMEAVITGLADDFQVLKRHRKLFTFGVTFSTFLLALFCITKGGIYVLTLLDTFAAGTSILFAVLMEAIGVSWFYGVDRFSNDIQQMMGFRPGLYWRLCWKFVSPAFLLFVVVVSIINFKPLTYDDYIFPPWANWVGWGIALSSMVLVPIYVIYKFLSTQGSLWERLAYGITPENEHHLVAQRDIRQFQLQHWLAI
Excerpt: as §1

[5] = target: T4, dopamine transporter (DAT) expressed in LLC-PK1 cells (Rattus norvegicus, UniProt P23977); experiment: [125I]IPT competition binding, LLC-DAT membrane homogenates; details: [125I]IPT ligand, LLC-PK1 membranes; read-out: Inhibition constant (Ki) DAT
T4 construct: host or cells: LLC-PK1 (LLC-DAT)
T4 sequence (P23977 whole entry): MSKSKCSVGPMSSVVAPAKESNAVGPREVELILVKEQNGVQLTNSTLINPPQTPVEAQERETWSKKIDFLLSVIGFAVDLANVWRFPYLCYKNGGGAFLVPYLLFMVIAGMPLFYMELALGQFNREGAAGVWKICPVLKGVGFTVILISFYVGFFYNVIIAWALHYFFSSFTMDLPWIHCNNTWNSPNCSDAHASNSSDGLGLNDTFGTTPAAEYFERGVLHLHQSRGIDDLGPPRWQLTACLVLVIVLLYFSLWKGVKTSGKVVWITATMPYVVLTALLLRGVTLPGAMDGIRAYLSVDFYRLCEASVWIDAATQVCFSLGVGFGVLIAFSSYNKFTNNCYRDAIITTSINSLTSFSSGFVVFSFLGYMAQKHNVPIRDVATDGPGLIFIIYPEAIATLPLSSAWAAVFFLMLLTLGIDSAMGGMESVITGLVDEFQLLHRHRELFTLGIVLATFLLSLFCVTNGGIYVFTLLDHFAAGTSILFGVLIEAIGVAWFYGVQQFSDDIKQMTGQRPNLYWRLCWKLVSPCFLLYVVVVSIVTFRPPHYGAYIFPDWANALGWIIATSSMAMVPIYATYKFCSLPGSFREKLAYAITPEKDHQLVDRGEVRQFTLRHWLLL
Excerpt: as §1

[6] = Biodistribution in rats after i.v. injection of radioactive tracer; type: in vivo, rat
Experimental: Three or four rats per group were used for each biodistribution study. While under ether anesthesia, 0.2 ml of a saline solution containing 10 μCi of radioactive tracer was injected into the femoral vein. The rats were sacrificed at the time indicated by cardiac excision while under ether anesthesia. Organs of interest were removed and weighed, and the radioactivity was counted using a Packard automatic gamma counter (Model 5000). The percent dose per organ was calculated by a comparison of the tissue counts to counts of 1% of the initial dose (100 times diluted aliquots of the injected material) measured at the same time.
Regional brain distribution in rats was measured after an i.v. injection of the radioactive tracer. Samples from different brain regions [cortex (CX), striatum (ST), hippocampus (HP), cerebellum (CB) and hypothalamus (HY)] were dissected, weighed and counted. The percentage dose/g of each sample was calculated by comparing sample counts with the counts of the diluted initial dose described above. The ratio of specific binding (SB) in each region was obtained by dividing the difference of each region from the cerebellum (percentage dose/g) with that of the cerebellum [(region-CB)/CB].

[7] = [125I]IPT ligand, LLC-PK1 membranes, read-out: Inhibition constant (Ki) SERT
[8] = [125I]IPT ligand, LLC-PK1 membranes, read-out: Inhibition constant (Ki) NET

Ki [1]: 669 nM | effect of pretreatment on specific binding of [125I]IDAM in rat brain regions [2]: no effect
Compound: CCN1CCC[C@H]1CNC(=O)c1c(O)c(Cl)cc(Cl)c1OC [Raclopride, raclopride]

Ki [3, 7]: 35 ± 2.5 nM
Compound: CN(C)Cc1cc(N)ccc1Cc1ccccc1 [K99034]

Compound: CN(C)Cc1ccccc1Sc1ccc(I)cc1N [K99028]
Ki [3]: ~0.013 nM | Ki [4, 8]: 699 ± 80 nM

Compound: CN(C)Cc1ccccc1Sc1ccc(Cl)cc1CO [K99033]
Ki [3]: < 0.01 nM

Ki [3, 7]: 0.33 ± 0.06 nM | Ki [5]: 9300 ± 200 nM | Ki [4, 8]: 382 ± 46 nM
Compound: CCCOCc1cc(I)ccc1Sc1ccccc1CN(C)C [K120]

Ki [3, 7]: < 0.1 nM | Ki [5]: > 10000 nM | Ki [4, 8]: 35.4 nM
Compound: CN(C)Cc1ccccc1Sc1ccc(Br)cc1CO [brominated derivative, 5-bromo-2-[[2-2[(dimethylamino)methyl]phenyl]thio]benzyl alcohol]

Compound: CN(C)Cc1ccccc1Oc1ccc([125I])cc1CO [[^125I]ODAM, 5-[123-Iodo or 125-iodo]-2-(2-dimethylaminomethylphenoxy)-benzyl alcohol]
% dose/organ BLOOD ([6]; 2 min): 3.009 ± 0.212 % dose/organ | % dose/organ BRAIN ([6]; 2 min): 2.033 ± 0.087 % dose/organ | % dose/organ THYROID ([6]; 2 min): 0.080 ± 0.019 % dose/organ | Regional brain distribution (ratio/CB) CEREBELLUM ([6]; 2 min): 1.000 | Regional brain distribution (ratio/CB) CORTEX ([6]; 2 min): 1.436 | Regional brain distribution (ratio/CB) HIPPOCAMPUS ([6]; 2 min): 0.983 | Regional brain distribution (ratio/CB) HYPOTHALAMUS ([6]; 2 min): 1.221 | Regional brain distribution (ratio/CB) STRIATUM ([6]; 2 min): 0.906 | % dose/organ BLOOD ([6]; 30 min): 3.517 ± 0.504 % dose/organ | % dose/organ BRAIN ([6]; 30 min): 1.489 ± 0.146 % dose/organ | % dose/organ THYROID ([6]; 30 min): 0.039 ± 0.006 % dose/organ | Regional brain distribution (ratio/CB) CEREBELLUM ([6]; 30 min): 1.000 | Regional brain distribution (ratio/CB) CORTEX ([6]; 30 min): 1.771 | Regional brain distribution (ratio/CB) HIPPOCAMPUS ([6]; 30 min): 1.563 | Regional brain distribution (ratio/CB) HYPOTHALAMUS ([6]; 30 min): 1.860 | Regional brain distribution (ratio/CB) STRIATUM ([6]; 30 min): 1.590 | % dose/organ BLOOD ([6]; 60 min): 3.296 ± 0.373 % dose/organ | % dose/organ BRAIN ([6]; 60 min): 0.785 ± 0.231 % dose/organ | % dose/organ THYROID ([6]; 60 min): 0.028 ± 0.005 % dose/organ | Regional brain distribution (ratio/CB) CEREBELLUM ([6]; 60 min): 1.000 | Regional brain distribution (ratio/CB) CORTEX ([6]; 60 min): 1.690 | Regional brain distribution (ratio/CB) HIPPOCAMPUS ([6]; 60 min): 1.791 | Regional brain distribution (ratio/CB) HYPOTHALAMUS ([6]; 60 min): 1.858 | Regional brain distribution (ratio/CB) STRIATUM ([6]; 60 min): 1.605 | % dose/organ BLOOD ([6]; 120 min): 1.868 ± 0.186 % dose/organ | % dose/organ BRAIN ([6]; 120 min): 0.267 ± 0.066 % dose/organ | % dose/organ THYROID ([6]; 120 min): 0.034 ± 0.006 % dose/organ | Regional brain distribution (ratio/CB) CEREBELLUM ([6]; 120 min): 1.000 | Regional brain distribution (ratio/CB) CORTEX ([6]; 120 min): 1.672 | Regional brain distribution (ratio/CB) HIPPOCAMPUS ([6]; 120 min): 1.846 | Regional brain distribution (ratio/CB) HYPOTHALAMUS ([6]; 120 min): 1.630 | Regional brain distribution (ratio/CB) STRIATUM ([6]; 120 min): 1.617 | % dose/organ BLOOD ([6]; 240 min): 0.976 ± 0.073 % dose/organ | % dose/organ BRAIN ([6]; 240 min): 0.065 ± 0.017 % dose/organ | % dose/organ THYROID ([6]; 240 min): 0.041 ± 0.038 % dose/organ | Regional brain distribution (ratio/CB) CEREBELLUM ([6]; 240 min): 1.000 | Regional brain distribution (ratio/CB) CORTEX ([6]; 240 min): 1.322 | Regional brain distribution (ratio/CB) HIPPOCAMPUS ([6]; 240 min): 1.648 | Regional brain distribution (ratio/CB) HYPOTHALAMUS ([6]; 240 min): 1.343 | Regional brain distribution (ratio/CB) STRIATUM ([6]; 240 min): 1.539

Ki [3, 7]: 139 ± 15 nM
Compound: Cc1ccccc1Nc1ccc(N)cc1CN(C)C [K99036]

Compound: CN(C)Cc1ccccc1Sc1ccc(Br)cc1N [K99026]
Ki [3, 7]: ~0.022 nM | Ki [4]: 214 ± 68 nM

Ki [3, 7]: ~0.075 nM | Ki [4, 8]: 165 ± 9 nM
Compound: CN(C)Cc1ccccc1Sc1ccc(Br)cc1NO [K99025]

Ki [3, 7]: 0.12 nM | % dose/organ BRAIN ([6]; 2 min): 2.03 % dose/organ | Regional brain distribution (ratio/CB) HYPOTHALAMUS ([6]; 2 min): 1.22 | % dose/organ BRAIN ([6]; 30 min): 1.49 % dose/organ | Regional brain distribution (ratio/CB) HYPOTHALAMUS ([6]; 30 min): 1.86 | % dose/organ BRAIN ([6]; 60 min): 0.79 % dose/organ | Regional brain distribution (ratio/CB) HYPOTHALAMUS ([6]; 60 min): 1.86 | % dose/organ BRAIN ([6]; 120 min): 0.27 % dose/organ | Regional brain distribution (ratio/CB) HYPOTHALAMUS ([6]; 120 min): 1.63 | % dose/organ BRAIN ([6]; 240 min): 0.07 % dose/organ | Regional brain distribution (ratio/CB) HYPOTHALAMUS ([6]; 240 min): 1.34 | Ki [1]: 2.88 ± 0.88 nM | Ki [5]: 3900 ± 700 nM
Compound: CN(C)Cc1ccccc1Oc1ccc(I)cc1CO [ODAM, 5-Iodo-2-(2-dimethylaminomethylphenoxy)-benzyl alcohol]

Ki [3, 7]: < 0.01 nM
Compound: CN(C)Cc1ccccc1Oc1ccc(I)cc1 [K99039]
